Test results published in PubChem BioAssay AID256 (DTP/NCI, 2004).
Where “and” joins values, the source holds several entries; their conditions need not be identical. Equal values may be shown once. Toxic doses and inconclusive results are not listed. The calls were made as follows: active = survival T/C of 150% or more; inactive = T/C below 125% in these data.

System: CD2F1 mice, L1210 leukemia ip, survival T/C
Assay: NCI In Vivo Anticancer Drug Screen. Data for tumor model L1210 Leukemia (intraperitoneal) in CD2F1 (CDF1) mice
Settings: higher = longer survival
How it was run: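 Activity against a transplanted murine tumor was judged by comparing the compound group with a vehicle group. The outcome in the treated animals was divided by that in the controls.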

[1] = endpoint: mean survival time, dose: 25.0 mg/kg/injection, schedule: Q01DX009 (ip), vehicle: saline with Tween-80
[2] = endpoint: mean survival time, dose: 50.0 mg/kg/injection, schedule: Q01DX009 (ip), vehicle: saline with Tween-80
[3] = endpoint: mean survival time, dose: 100.0 mg/kg/injection, schedule: Q01DX009 (ip), vehicle: saline with Tween-80
[4] = endpoint: mean survival time, dose: 200.0 mg/kg/injection, schedule: Q01DX009 (ip), vehicle: saline with Tween-80
[5] = endpoint: mean survival time, dose: 200.0 mg/kg/injection, schedule: Q04DX002 (ip), vehicle: saline with Tween-80
[6] = endpoint: mean survival time, dose: 400.0 mg/kg/injection, schedule: Q04DX002 (ip), vehicle: saline with Tween-80
[7] = endpoint: mean survival time, dose: 100.0 mg/kg/injection, schedule: Q04DX003 (ip), vehicle: Klucel (hydroxypropylcellulose) (HPC)
[8] = endpoint: mean survival time, dose: 200.0 mg/kg/injection, schedule: Q04DX003 (ip), vehicle: Klucel (hydroxypropylcellulose) (HPC)
[9] = endpoint: mean survival time, dose: 100.0 mg/kg/injection, schedule: Q04DX003 (ip), vehicle: saline with Tween-80
[10] = endpoint: mean survival time, dose: 200.0 mg/kg/injection, schedule: Q04DX003 (ip), vehicle: saline with Tween-80
[11] = endpoint: mean survival time, dose: 400.0 mg/kg/injection, schedule: Q04DX003 (ip), vehicle: saline with Tween-80
[12] = endpoint: mean survival time, dose: 400.0 mg/kg/injection, schedule: Q01DX009 (ip), vehicle: saline with Tween-80
[13] = endpoint: mean survival time, dose: 200.0 mg/kg/injection, schedule: Q01DX001 (ip), vehicle: saline
[14] = endpoint: mean survival time, dose: 12.5 mg/kg/injection, schedule: Q04DX002 (ip), vehicle: saline with Tween-80

Measured: T/C

Cc1ccc2c(c1)N=C(Nc1ccccc1)N=S2(C)=O (centres undefined)
inactive: endpoint: mean survival time, dose: 6.25 mg/kg/injection, schedule: Q01DX009 (ip), vehicle: saline with Tween-80 96 % of control and 104 % of control | endpoint: mean survival time, dose: 12.5 mg/kg/injection, schedule: Q01DX009 (ip), vehicle: saline with Tween-80 100 % of control and 107 % of control | [1] 104 % of control | [2] 90 % of control and 106 % of control | [3] 101 % of control | [4] 102 % of control

CC(=O)c1c(C)c2c(C)cc3oc(=O)c(C(C)=O)c(C)c3c2oc1=O
inactive: [5] 92 % of control | [6] 87 % of control

O=C(O)C(O)C(O)C(=O)O.[NH-]C1CCCCC1[NH-].[Pt+2] (centres undefined)
active: endpoint: mean survival time, dose: 12.5 mg/kg/injection, schedule: Q04DX003 (ip), vehicle: water 367 % of control | endpoint: mean survival time, dose: 25.0 mg/kg/injection, schedule: Q04DX003 (ip), vehicle: water 266 % of control | endpoint: mean survival time, dose: 50.0 mg/kg/injection, schedule: Q04DX003 (ip), vehicle: water 201 % of control
inactive: endpoint: mean survival time, dose: 1.56 mg/kg/injection, schedule: Q04DX003 (ip), vehicle: water 115 % of control

CCCCCC(CN(C)C)C(=O)/C=C\c1ccc(Cl)cc1Cl (centres undefined)
inactive: endpoint: mean survival time, dose: 12.5 mg/kg/injection, schedule: Q01DX009 (ip), vehicle: alcohol 102 % of control | endpoint: mean survival time, dose: 25.0 mg/kg/injection, schedule: Q01DX009 (ip), vehicle: alcohol 102 % of control

CC1(CO)C2C=CC(C2)C1(C)CO (centres undefined)
inactive: endpoint: mean survival time, dose: 75.0 mg/kg/injection, schedule: Q01DX001 (ip), vehicle: saline 105 % of control | endpoint: mean survival time, dose: 150.0 mg/kg/injection, schedule: Q01DX001 (ip), vehicle: saline 105 % of control

Nc1nc(N)c2c(ccc3c2ccn3Cc2cccc([N+](=O)[O-])c2)n1
inactive: endpoint: median survival time, dose: 0.75 mg/kg/injection, schedule: Q01DX009 (ip), vehicle: saline with Tween-80 104 % of control | endpoint: median survival time, dose: 1.5 mg/kg/injection, schedule: Q01DX009 (ip), vehicle: saline with Tween-80 111 % of control | endpoint: median survival time, dose: 1.56 mg/kg/injection, schedule: Q01DX009 (ip), vehicle: saline with Tween-80 110 % of control | endpoint: median survival time, dose: 3.0 mg/kg/injection, schedule: Q01DX009 (ip), vehicle: saline with Tween-80 117 % of control | endpoint: median survival time, dose: 3.12 mg/kg/injection, schedule: Q01DX009 (ip), vehicle: saline with Tween-80 118 % of control | endpoint: median survival time, dose: 12.5 mg/kg/injection, schedule: Q01DX009 (ip), vehicle: saline with Tween-80 90 % of control and 98 % of control | endpoint: median survival time, dose: 25.0 mg/kg/injection, schedule: Q01DX009 (ip), vehicle: saline with Tween-80 102 % of control and 103 % of control

CCOC(=O)Nc1nccs1
inactive: [1] 98 % of control | [2] 100 % of control | [3] 98 % of control | [7] 101 % of control | [8] 97 % of control

Nc1nc(N)c(N)c(/C=C/c2ccccc2)n1
inactive: endpoint: mean survival time, dose: 0.32 mg/kg/injection, schedule: Q01DX009 (ip), vehicle: other 101 % of control | endpoint: mean survival time, dose: 0.63 mg/kg/injection, schedule: Q01DX009 (ip), vehicle: other 106 % of control | endpoint: mean survival time, dose: 0.63 mg/kg/injection, schedule: Q01DX009 (ip), vehicle: water 97 % of control | endpoint: mean survival time, dose: 1.25 mg/kg/injection, schedule: Q01DX009 (ip), vehicle: other 98 % of control | endpoint: mean survival time, dose: 1.25 mg/kg/injection, schedule: Q01DX009 (ip), vehicle: water 103 % of control | endpoint: mean survival time, dose: 2.5 mg/kg/injection, schedule: Q01DX009 (ip), vehicle: other 101 % of control | endpoint: mean survival time, dose: 2.5 mg/kg/injection, schedule: Q01DX009 (ip), vehicle: water 97 % of control | endpoint: mean survival time, dose: 5.0 mg/kg/injection, schedule: Q01DX009 (ip), vehicle: other 101 % of control | endpoint: mean survival time, dose: 5.0 mg/kg/injection, schedule: Q01DX009 (ip), vehicle: water 97 % of control

O=C(Nc1ccccc1)c1ccccc1C(O)(c1ccccc1)c1ccc(Cl)cc1 (centres undefined)
inactive: [9] 95 % of control | [10] 95 % of control | [11] 97 % of control

COC(=O)c1cccc2c1OCO2
inactive: [3] 101 % of control | [9] 100 % of control | [4] 101 % of control | [10] 100 % of control | [12] 101 % of control | [11] 103 % of control

CN(C)c1ccc(/C=N/NC(=O)COc2ccccc2)cc1
inactive: [3] 91 % of control | [4] 89 % of control

N/N=C(\N)c1ccccc1
inactive: endpoint: mean survival time, dose: 100.0 mg/kg/injection, schedule: Q01DX001 (ip), vehicle: saline 117 % of control | [13] 123 % of control

O=C(O)c1c2ccccc2cc2ccccc12
inactive: [7] 101 % of control | [8] 95 % of control | endpoint: mean survival time, dose: 400.0 mg/kg/injection, schedule: Q04DX003 (ip), vehicle: Klucel (hydroxypropylcellulose) (HPC) 90 % of control

C(=Nc1ccc(-c2ccccc2)cc1)c1ccccc1
inactive: [3] 87 % of control | [12] 91 % of control

CC1SC(C(C)(C)C)SC(C)C1C(C)(C)C (centres undefined)
inactive: [14] 102 % of control | endpoint: mean survival time, dose: 25.0 mg/kg/injection, schedule: Q04DX002 (ip), vehicle: saline with Tween-80 102 % of control | endpoint: mean survival time, dose: 50.0 mg/kg/injection, schedule: Q04DX002 (ip), vehicle: saline with Tween-80 102 % of control

CCc1ccc(N=Nc2ccc(N(C)C)cc2)cc1CC
inactive: endpoint: mean survival time, dose: 75.0 mg/kg/injection, schedule: Q04DX002 (ip), vehicle: saline with Tween-80 92 % of control | endpoint: mean survival time, dose: 150.0 mg/kg/injection, schedule: Q04DX002 (ip), vehicle: saline with Tween-80 92 % of control | endpoint: mean survival time, dose: 300.0 mg/kg/injection, schedule: Q04DX002 (ip), vehicle: saline with Tween-80 88 % of control

CC(=O)OCC1OC(n2cnc3c(Cl)ncnc32)C(OC(C)=O)C1OC(C)=O (centres undefined)
inactive: endpoint: mean survival time, dose: 12.5 mg/kg/injection, schedule: Q01DX005 (ip), vehicle: other 94 % of control | endpoint: mean survival time, dose: 25.0 mg/kg/injection, schedule: Q01DX005 (ip), vehicle: other 88 % of control | endpoint: mean survival time, dose: 50.0 mg/kg/injection, schedule: Q01DX005 (ip), vehicle: other 98 % of control | endpoint: mean survival time, dose: 100.0 mg/kg/injection, schedule: Q01DX005 (ip), vehicle: other 96 % of control | endpoint: mean survival time, dose: 200.0 mg/kg/injection, schedule: Q01DX005 (ip), vehicle: other 100 % of control | endpoint: mean survival time, dose: 400.0 mg/kg/injection, schedule: Q01DX005 (ip), vehicle: other 102 % of control

CCN(CCN(C)C(C)(C)C(C)(C)C)C(=O)C(O)(c1ccccc1)c1ccccc1
inactive: [2] 103 % of control | [3] 110 % of control

CC(=O)OC1CCC2(C)C(CCC3C2CCC2(C)C3CC3OC(CCC(C)CO)C(C)C32)C1 (centres undefined)
inactive: [3] 95 % of control | [4] 91 % of control | [12] 96 % of control

CC(Cc1ccccc1)NC=O (centres undefined)
inactive: [2] 97 % of control | [3] 97 % of control

COc1ccc2c(O)c(C)c(=O)n(C)c2c1
inactive: endpoint: mean survival time, dose: 100.0 mg/kg/injection, schedule: Q04DX002 (ip), vehicle: saline with Tween-80 96 % of control | [5] 96 % of control | [6] 93 % of control

CC12CCC3c4ccc(O)cc4CCC3C1CCC2S (centres undefined)
inactive: [9] 88 % of control | [10] 92 % of control

C=C1C(=O)OC2CC(C)C3CC(O)OC(O)C3(C)CC12 (centres undefined)
inactive: endpoint: mean survival time, dose: 3.13 mg/kg/injection, schedule: Q01DX005 (ip), vehicle: water 88 % of control | endpoint: mean survival time, dose: 6.25 mg/kg/injection, schedule: Q01DX005 (ip), vehicle: water 94 % of control | endpoint: mean survival time, dose: 12.5 mg/kg/injection, schedule: Q01DX005 (ip), vehicle: water 102 % of control

CN(C)C(=S)SCC(=O)O
inactive: endpoint: mean survival time, dose: 100.0 mg/kg/injection, schedule: Q04DX003 (ip), vehicle: saline 95 % of control | endpoint: mean survival time, dose: 200.0 mg/kg/injection, schedule: Q04DX003 (ip), vehicle: saline 96 % of control | endpoint: mean survival time, dose: 400.0 mg/kg/injection, schedule: Q04DX003 (ip), vehicle: saline 102 % of control

CC(C)c1cccc(O)c(=O)c1
inactive: [2] 102 % of control | [3] 100 % of control

NC(=S)N/N=C/c1ccc(F)cn1
inactive: endpoint: mean survival time, dose: 11.0 mg/kg/injection, schedule: Q04DX003 (ip), vehicle: saline with Tween-80 105 % of control | [14] 118 % of control | endpoint: mean survival time, dose: 16.5 mg/kg/injection, schedule: Q04DX003 (ip), vehicle: saline with Tween-80 110 % of control | endpoint: mean survival time, dose: 25.0 mg/kg/injection, schedule: Q04DX003 (ip), vehicle: saline with Tween-80 110 % of control

O=C(COc1cc(Cl)c(Cl)cc1Cl)OCCOc1cc(Cl)c(Cl)cc1Cl
inactive: endpoint: mean survival time, dose: 15.0 mg/kg/injection, schedule: Q04DX003 (ip), vehicle: saline 93 % of control | endpoint: mean survival time, dose: 30.0 mg/kg/injection, schedule: Q04DX003 (ip), vehicle: saline 89 % of control | [13] 86 % of control
